From PubChem BioAssay AID493102 (Broad Institute, 2011)

System: SK-MEL-5 TRPM1-promoter luciferase reporter, 24 h
Assay: TRPM1 promoter luciferase signal decrease, dose response, MITF inhibitor project, cell-based, SK-MEL-5, cherry-picked, set 4 (AID 493102);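 also: actives lower the luciferase signal so the potency reflects inhibition of reporter expression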

COc1cccc(N2CCN(C(=O)c3ccc(CS(=O)c4ccccc4Cl)o3)CC2)c1 (stereo unspecified)
AC50: 0.894 µM

COc1ccc(NS(=O)(=O)c2cc(NC(=O)CNC(=O)c3cccc(OC)c3)ccc2C)cc1
AC50: 11 µM

CC1(C)Cc2ccccc2C2=NNC(=O)C2=N1
AC50: 3.62 µM

COc1ccc(C(CCNC(C)c2ccccc2)c2ccc(F)cc2)cc1 (stereo unspecified)
AC50: 16.6 µM

COC(=O)C1=C(CN2CCCc3ccccc32)NC(=O)NC1c1ccc(F)cc1 (stereo unspecified)
AC50: 2.16 µM

O=C(c1ccc(S(=O)(=O)Cc2ccccc2Cl)c([N+](=O)[O-])c1)N1CCN(c2ccccn2)CC1
AC50: 9.49 µM

Cc1ccc(NC(=O)Cn2ncc(Cl)c(Cl)c2=O)cc1S(=O)(=O)N1CCCCC1
AC50: 13.7 µM

Cc1ccc2c(c1)Oc1ccc(NC(=O)CCl)cc1C(=O)N2
AC50: 10.1 µM

CC(=O)c1ccc(Sc2nnnn2-c2ccccc2)c([N+](=O)[O-])c1
AC50: 7.82 µM

O=c1c2ccccc2nc(/C=C/c2ccc([N+](=O)[O-])o2)n1-c1ccc(O)cc1
AC50: 4.45 µM

COc1cc(C2C(C#N)=C(N)Oc3cc(N(C)C)ccc32)cc2c1OCO2 (stereo unspecified)
AC50: 0.601 µM

O=[N+]([O-])c1cc(S(=O)(=O)N2CCCCCC2)ccc1F
AC50: 9.53 µM

CCN1CCc2c(sc(NC(=O)c3ccc(S(=O)(=O)N4CCCCCC4)cc3)c2C(=O)NC)C1
AC50: 16.6 µM

Cc1ccc(C(=O)N/C(=C\c2ccc(-c3ccc(Br)cc3)o2)C(=O)NCCCN(C)C)cc1
AC50: 6.84 µM

O=C(CCl)N(c1ccccc1)C1CCCCC1
AC50: 4.51 µM

CN(c1ccc2nc3ccccc3c(=O)n2n1)C1CCCCC1
AC50: 1.29 µM

NC(=O)c1cc([N+](=O)[O-])ccc1NCc1ccc(N)cc1
AC50: 1.41 µM

CN(C)c1ccc(NC(=S)c2ccccn2)cc1
AC50: 2.84 µM

CCCOCc1ccc(O)c2ncccc12
AC50: 15.5 µM

CC(=O)N1CCc2c(sc(NC(=O)c3ccc([N+](=O)[O-])o3)c2C#N)C1
AC50: 2.22 µM

NNC(=O)c1cc2ccccc2cc1O
AC50: 24 µM

CC(=NNC(=S)N1CCN(c2ccccn2)CC1)c1nccs1
AC50: 0.681 µM

O=C(N/N=C\c1cc(Br)ccc1O)c1ccc(S(=O)(=O)N2CCCCC2)cc1
AC50: 1.78 µM

O=C(NC1CCCCC1)C(c1cccnc1)N(C(=O)CCl)c1cccc(Cl)c1 (stereo unspecified)
AC50: 4.16 µM

CN1CCN(c2ccccc2NC(=O)c2ccc([N+](=O)[O-])o2)CC1
AC50: 4.95 µM

O=C(Nc1ccc2nc3n(c(=O)c2c1)CCCC3)c1cc([N+](=O)[O-])ccc1F
AC50: 11.5 µM

CC(C)(C)c1ccc(C(=O)Nc2sc3c(c2C(=O)O)CCC3)cc1
AC50: 2.09 µM

CCOc1cc(NC(=O)CCl)c(OCC)cc1NC(=O)CCl
AC50: 5.5 µM

O=C(O)c1cccc(N/N=C/c2ccc(OC(F)(F)F)cc2)c1
AC50: 5.95 µM

Cc1ccccc1OCC(=O)Nc1cccc(C(=O)O)c1
AC50: 1.05 µM

CC1=C/C(=N\NC(=S)Nc2cccnc2)CC(C)(C)C1
AC50: 11 µM

CC(=O)Oc1c(C(=O)c2nnc(C)o2)c(=O)n(Cc2ccccc2)c2ccccc12
AC50: 6.98 µM

O=C(COC(=O)c1ccc(F)c([N+](=O)[O-])c1)NC(=O)NCc1ccccc1
AC50: 13.6 µM

C=CCN1C(=O)/C(=C/c2cc(C)n(-c3cccnc3)c2C)C(=O)NC1=S
AC50: 16.8 µM

Cn1c(/C=C/c2cccc([N+](=O)[O-])c2)c([N+](=O)[O-])c(=O)n(C)c1=O
AC50: 27.8 µM

O=c1c2ccccc2cnn1CCOc1ccccc1
AC50: 7.2 µM

CC1CCC(C(C)C)C(OC(=O)C[n+]2cc(-c3ccc(Cl)cc3)n3c2CCCCC3)C1 (stereo unspecified)
AC50: 6.97 µM

CCOc1ccc(NC(=O)Nc2cccc(C(=O)O)c2)cc1
AC50: 1.53 µM

O=C(Nc1cccc(Cl)c1)Nc1cc(S(=O)(=O)N2CCCCC2)ccc1Cl
AC50: 12 µM

COc1cccc(C(=O)N/N=C(/c2ccccc2)c2ccccn2)c1
AC50: 5.8 µM

COc1cc(NC(=O)c2[nH]cnc2C(N)=O)cc(C(=O)Nc2cccc(C(F)(F)F)c2)c1
AC50: 10.9 µM

CCCN(CC(=O)Nc1ccccc1C)C(=O)CCl
AC50: 4.04 µM

Cc1ccc(OCC(=O)N/N=C/c2ccc([N+](=O)[O-])o2)cc1
AC50: 8.9 µM

O=c1nc(N/N=C/c2ccccn2)cn[nH]1
AC50: 4.65 µM

Nc1ccc2c(c1)OC1(CCCC1)O2
AC50: 11.2 µM

Cc1ccc(Oc2c(C(N)=O)cc([N+](=O)[O-])cc2[N+](=O)[O-])cc1
AC50: 3.68 µM

COc1cc(C(=O)Oc2c(CN3CCOCC3)cc(Cl)c3cccnc23)cc(OC)c1OC
AC50: 7.56 µM

O=C(Cn1ncc(Cl)c(Cl)c1=O)N1CCN(Cc2ccccc2)CC1
AC50: 10.9 µM

Cc1cc(NC(=O)c2cncc(Br)c2)ccc1NC(=O)c1cc2ccccc2o1
AC50: 10.4 µM

O=C(N/N=C/c1ccc([N+](=O)[O-])s1)c1ccccc1Br
AC50: 3.65 µM

O=C1NC(=O)N(Cc2ccccc2Cl)C(=O)/C1=C/c1cccs1
AC50: 29.7 µM

O=C(CCCN1C(=O)S/C(=C\c2ccccc2)C1=O)NNC(=O)c1ccccc1O
AC50: 33.9 µM

Cc1cc(C)c(C#N)c(SCc2nnc(-c3ccccc3)o2)n1
AC50: 0.024 µM

CCOC(=O)CSC1=NC(=O)/C(=C/c2ccc(OC)cc2)S1
AC50: 3.98 µM

Cn1nnnc1Sc1ncnc2scc(-c3ccc[nH]3)c12
AC50: 7.32 µM

COc1ccc(/C=C2\SC(=O)N(CCCC(=O)Nc3cc(Cl)ccc3C(=O)O)C2=O)cc1
AC50: 0.528 µM
